Source: patent US20230024096A1, “BIFUNCTIONAL COMPOUNDS FOR THE TREATMENT OF CANCER” (Hoffmann-La Roche Inc., priority 2019, published 2023)

Target: T1, SMARCA2 (Homo sapiens, UniProt P51531)
T1 construct: endogenous in cells; host or cells: HT1080 (CRISPR HiBiT knock-in clone, generated in house)
Assay: SMARCA2 HiBiT degradation assay (cellular)
Format: cell-based
Conditions: table head names A549; for DC50: 6 h incubation, HiBiT-tagged SMARCA2, luminescence read-out, read-out: HiBit A549 SMARCA2 IP (nM) 6 h; for Emax: A549, 6 h incubation, Emax = amount of residual protein remaining in the cell following compound treatment

T1 sequence (P51531 whole entry): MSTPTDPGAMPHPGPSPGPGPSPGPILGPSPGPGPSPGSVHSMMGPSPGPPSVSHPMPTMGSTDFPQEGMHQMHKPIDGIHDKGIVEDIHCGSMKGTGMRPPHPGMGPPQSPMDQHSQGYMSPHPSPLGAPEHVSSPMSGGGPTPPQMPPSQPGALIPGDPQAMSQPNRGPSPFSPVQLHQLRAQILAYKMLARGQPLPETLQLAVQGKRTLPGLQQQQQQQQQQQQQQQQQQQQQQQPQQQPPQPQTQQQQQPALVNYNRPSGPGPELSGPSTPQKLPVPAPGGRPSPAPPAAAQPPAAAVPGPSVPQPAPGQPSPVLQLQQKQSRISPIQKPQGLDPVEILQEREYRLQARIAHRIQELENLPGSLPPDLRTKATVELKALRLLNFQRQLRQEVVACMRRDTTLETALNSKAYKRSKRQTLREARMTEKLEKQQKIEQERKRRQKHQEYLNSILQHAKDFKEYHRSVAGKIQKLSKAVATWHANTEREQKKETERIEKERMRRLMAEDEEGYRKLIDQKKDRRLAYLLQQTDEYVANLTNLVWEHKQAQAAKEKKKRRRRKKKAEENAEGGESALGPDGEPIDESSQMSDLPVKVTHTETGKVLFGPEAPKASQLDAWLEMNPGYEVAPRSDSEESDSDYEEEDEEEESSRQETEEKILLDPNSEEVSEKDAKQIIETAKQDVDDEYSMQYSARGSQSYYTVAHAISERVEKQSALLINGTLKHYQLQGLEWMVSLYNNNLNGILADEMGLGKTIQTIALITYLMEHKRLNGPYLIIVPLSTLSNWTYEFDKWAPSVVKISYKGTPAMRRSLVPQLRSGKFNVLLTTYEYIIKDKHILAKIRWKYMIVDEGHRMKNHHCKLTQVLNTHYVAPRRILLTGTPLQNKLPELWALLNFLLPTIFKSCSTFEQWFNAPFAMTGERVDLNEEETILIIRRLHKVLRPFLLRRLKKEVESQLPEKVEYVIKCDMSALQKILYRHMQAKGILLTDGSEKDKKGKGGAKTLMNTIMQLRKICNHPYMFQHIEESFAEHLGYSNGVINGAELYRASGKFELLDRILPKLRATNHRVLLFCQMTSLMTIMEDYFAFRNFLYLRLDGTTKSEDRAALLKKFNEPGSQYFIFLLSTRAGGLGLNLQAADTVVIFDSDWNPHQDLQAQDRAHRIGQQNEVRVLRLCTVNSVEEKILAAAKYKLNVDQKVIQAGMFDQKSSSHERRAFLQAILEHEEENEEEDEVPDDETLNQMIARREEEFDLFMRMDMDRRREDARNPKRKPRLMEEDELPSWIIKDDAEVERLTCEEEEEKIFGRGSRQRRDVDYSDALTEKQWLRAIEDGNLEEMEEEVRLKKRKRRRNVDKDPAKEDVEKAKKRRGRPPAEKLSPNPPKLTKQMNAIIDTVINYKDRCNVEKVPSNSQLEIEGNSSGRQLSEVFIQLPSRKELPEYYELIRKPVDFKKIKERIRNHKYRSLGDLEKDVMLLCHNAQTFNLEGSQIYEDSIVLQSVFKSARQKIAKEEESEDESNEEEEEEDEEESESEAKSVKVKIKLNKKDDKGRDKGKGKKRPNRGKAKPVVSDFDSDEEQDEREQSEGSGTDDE

## CC(Nc1cccc2c1C(=O)N(C1CCC(=O)NC1=O)C2=O)c1cn(CCCCCCCCCN2CCN(c3ccc(N4CCC[C@H](Oc5cc(-c6ccccc6O)nnc5N)C4)cc3)CC2)nn1 (mixture of isomers) [Example 201, 2-(2,6-dioxo-3-piperidyl)-4-[1-[1-[9-[4-[4-[rac-(3S)-3-[3-amino-6-(2-hydroxyphenyl)pyridazin-4-yl]oxy-1-piperidyl]phenyl]piperazin-1-yl]nonyl]triazol-4-yl]ethylamino]isoindoline-1,3-dione]
  DC50: 79 nM
  Emax: 37%

## CC(Oc1cccc2c1C(=O)N(C1CCC(=O)NC1=O)C2=O)c1cn(CCCCCCOCCN2CCN(c3ccc(N4CCC[C@H](Oc5cc(-c6ccccc6O)nnc5N)C4)cc3)CC2)nn1 (mixture of isomers) [Example 202, 2-(2,6-dioxo-3-piperidyl)-4-[1-[1-[6-[2-[4-[4-[rac-(3S)-3-[3-amino-6-(2-hydroxyphenyl)pyridazin-4-yl]oxy-1-piperidyl]phenyl]piperazin-1-yl]ethoxy]hexyl]triazol-4-yl]ethoxy]isoindoline-1,3-dione]
  DC50: 107 nM
  Emax: 44%

## CCC(Nc1cccc2c1C(=O)N(C1CCC(=O)NC1=O)C2=O)c1cn(CCCCCCCCCN2CCN(c3ccc(N4CCC[C@H](Oc5cc(-c6ccccc6O)nnc5N)C4)cc3)CC2)nn1 (mixture of isomers) [Example 203, 2-(2,6-dioxo-3-piperidyl)-4-[1-[1-[9-[4-[4-[rac-(3S)-3-[3-amino-6-(2-hydroxyphenyl)pyridazin-4-yl]oxy-1-piperidyl]phenyl]piperazin-1-yl]nonyl]triazol-4-yl]propylamino]isoindoline-1,3-dione]
  DC50: 216 nM
  Emax: 28%

## CC(Oc1cccc2c1C(=O)N(C1CCC(=O)NC1=O)C2=O)c1cn(CCC(=O)N2CCN(CCCN3CCN(c4ccc(N5CCC[C@H](Oc6cc(-c7ccccc7O)nnc6N)C5)cc4)CC3)CC2)nn1 (mixture of isomers) [Example 204, 2-(2,6-dioxo-3-piperidyl)-4-[1-[1-[3-oxo-3-[4-[3-[4-[4-[rac-(3S)-3-[3-amino-6-(2-hydroxyphenyl)pyridazin-4-yl]oxy-1-piperidyl]phenyl]piperazin-1-yl]propyl]piperazin-1-yl]propyl]triazol-4-yl]ethoxy]isoindoline-1,3-dione]
  DC50: 907 nM
  Emax: 39%

## Nc1nnc(-c2ccccc2O)cc1N1CC2CCC(C1)N2c1cccc(OCCN2CCN(C(=O)N3C[C@@H]4CN(c5ccc6c(c5)C(=O)N(C5CCC(=O)NC5=O)C6=O)C[C@@H]4C3)CC2)c1 (relative stereo) [Example 157, rac-2-(2,6-dioxo-3-piperidyl)-5-[rel-(3aS,6aR)-5-[4-[2-[3-[3-[3-amino-6-(2-hydroxyphenyl)pyridazin-4-yl]-3,8-diazabicyclo[3.2.1]octan-8-yl]phenoxy]ethyl]piperazine-1-carbonyl]-1,3,3a,4,6,6a-hexahydropyrrolo[3,4-c]pyrrol-2-yl]isoindoline-1,3-dione]
  DC50: 108 nM
  Emax: 68%

## Nc1nnc(-c2ccccc2O)cc1N1CC2CCC(C1)N2c1cccc(CN2CCC(C(=O)N3C[C@@H]4CN(c5ccc6c(c5)C(=O)N(C5CCC(=O)NC5=O)C6=O)C[C@@H]4C3)CC2)c1 (relative stereo) [Example 171, rac-2-(2,6-dioxo-3-piperidyl)-5-[rel-(3aR,6aS)-5-[1-[[3-[3-[3-amino-6-(2-hydroxyphenyl)pyridazin-4-yl]-3,8-diazabicyclo[3.2.1]octan-8-yl]phenyl]methyl]piperidine-4-carbonyl]-1,3,3a,4,6,6a-hexahydropyrrolo[3,4-c]pyrrol-2-yl]isoindoline-1,3-dione]
  DC50: 66 nM
  Emax: 40%

## Nc1nnc(-c2ccccc2O)cc1N1CC2CCC(C1)N2c1cccc(OCCN2CCN(C(=O)CCCCCCNc3cccc4c3C(=O)N(C3CCC(=O)NC3=O)C4=O)CC2)c1 (stereo not drawn) [Example 1, 4-[[7-[4-[2-[3-[3-[3-amino-6-(2-hydroxyphenyl)pyridazin-4-yl]-3,8-diazabicyclo[3.2.1]octan-8-yl]phenoxy]ethyl]piperazin-1-yl]-7-oxo-heptyl]amino]-2-(2,6-dioxo-3-piperidyl)isoindoline-1,3-dione]
  DC50: 68 nM
  Emax: 55%

## Nc1nnc(-c2ccccc2O)cc1N1CCC2(CC1)CN(C(=O)CCC1CCN(c3cccc4c3C(=O)N(C3CCC(=O)NC3=O)C4=O)CC1)CCO2 (stereo not drawn) [Example 2, 4-[4-[3-[9-[3-amino-6-(2-hydroxyphenyl)pyridazin-4-yl]-1-oxa-4,9-diazaspiro[5.5]undecan-4-yl]-3-oxo-propyl]-1-piperidyl]-2-(2,6-dioxo-3-piperidyl)isoindoline-1,3-dione]
  DC50: 550 nM
  Emax: 53%

## Nc1nnc(-c2ccccc2O)cc1OC1CCCN(c2ccc(N3CCN(C(=O)CCCCCCCCn4cc(CNc5cccc6c5C(=O)N(C5CCC(=O)NC5=O)C6=O)nn4)CC3)cc2)C1 (stereo not drawn) [Example 3, 4-[[1-[9-[4-[4-[3-[3-amino-6-(2-hydroxyphenyl)pyridazin-4-yl]oxy-1-piperidyl]phenyl]piperazin-1-yl]-9-oxo-nonyl]triazol-4-yl]methylamino]-2-(2,6-dioxo-3-piperidyl)isoindoline-1,3-dione]
  DC50: 65 nM
  Emax: 50%

## Nc1nnc(-c2ccccc2O)cc1OC1CCCN(c2ccc(N3CCN(C(=O)CCCCCCCCCCCn4cc(CNc5cccc6c5C(=O)N(C5CCC(=O)NC5=O)C6=O)nn4)CC3)cc2)C1 (stereo not drawn) [Example 4, 4-[[1-[12-[4-[4-[3-[3-amino-6-(2-hydroxyphenyl)pyridazin-4-yl]oxy-1-piperidyl]phenyl]piperazin-1-yl]-12-oxo-dodecyl]triazol-4-yl]methylamino]-2-(2,6-dioxo-3-piperidyl)isoindoline-1,3-dione]
  DC50: 149 nM
  Emax: 44%

## Nc1nnc(-c2ccccc2O)cc1N1CCN(c2cccc(OCCN3CCN(C(=O)CCCCCCNc4cccc5c4C(=O)N(C4CCC(=O)NC4=O)C5=O)CC3)c2)C2(CC2)C1 (stereo not drawn) [Example 5, 4-[[7-[4-[2-[3-[7-[3-amino-6-(2-hydroxyphenyl)pyridazin-4-yl]-4,7-diazaspiro[2.5]octan-4-yl]phenoxy]ethyl]piperazin-1-yl]-7-oxo-heptyl]amino]-2-(2,6-dioxo-3-piperidyl)isoindoline-1,3-dione]
  DC50: 66 nM
  Emax: 60%

## Nc1nnc(-c2ccccc2O)cc1N1CC2CCC(C1)N2c1cccc(OCCN2CCN(C(=O)CCCCCCCCNc3cccc4c3C(=O)N(C3CCC(=O)NC3=O)C4=O)CC2)c1 (stereo not drawn) [Example 6, 4-[[9-[4-[2-[3-[3-[3-amino-6-(2-hydroxyphenyl)pyridazin-4-yl]-3,8-diazabicyclo[3.2.1]octan-8-yl]phenoxy]ethyl]piperazin-1-yl]-9-oxo-nonyl]amino]-2-(2,6-dioxo-3-piperidyl)isoindoline-1,3-dione]
  DC50: 334 nM
  Emax: 58%

## Nc1nnc(-c2ccccc2O)cc1N1CCC2(CC1)CN(C(=O)CCCCCCCCCCCn1cc(CNc3cccc4c3C(=O)N(C3CCC(=O)NC3=O)C4=O)nn1)CCO2 (stereo not drawn) [Example 7, 4-[[1-[12-[9-[3-amino-6-(2-hydroxyphenyl)pyridazin-4-yl]-1-oxa-4,9-diazaspiro[5.5]undecan-4-yl]-12-oxo-dodecyl]triazol-4-yl]methylamino]-2-(2,6-dioxo-3-piperidyl)isoindoline-1,3-dione]
  DC50: 423 nM
  Emax: 42%

## Nc1nnc(-c2ccccc2O)cc1OC1CCCN(c2ccc(N3CCN(C(=O)CCCCCCCCCCCCCCn4cc(CNc5cccc6c5C(=O)N(C5CCC(=O)NC5=O)C6=O)nn4)CC3)cc2)C1 (stereo not drawn) [Example 8, 4-[[1-[15-[4-[4-[3-[3-amino-6-(2-hydroxyphenyl)pyridazin-4-yl]oxy-1-piperidyl]phenyl]piperazin-1-yl]-15-oxo-pentadecyl]triazol-4-yl]methylamino]-2-(2,6-dioxo-3-piperidyl)isoindoline-1,3-dione]
  DC50: 254 nM
  Emax: 65%

## Nc1nnc(-c2ccccc2O)cc1OC1CCCN(c2ccc(OCCN3CCN(C(=O)CCCCCCCCCCCn4cc(CNc5cccc6c5C(=O)N(C5CCC(=O)NC5=O)C6=O)nn4)CC3)cc2)C1 (stereo not drawn) [Example 23, 4-[[1-[12-[4-[2-[4-[3-[3-amino-6-(2-hydroxyphenyl)pyridazin-4-yl]oxy-1-piperidyl]phenoxy]ethyl]piperazin-1-yl]-12-oxo-dodecyl]triazol-4-yl]methylamino]-2-(2,6-dioxo-3-piperidyl)isoindoline-1,3-dione]
  DC50: 157 nM
  Emax: 45%

## Nc1nnc(-c2ccccc2O)cc1OC1CCCN(c2ccc(OCCN3CCN(C(=O)CCCCCCCCCCCCCCn4cc(CNc5cccc6c5C(=O)N(C5CCC(=O)NC5=O)C6=O)nn4)CC3)cc2)C1 (stereo not drawn) [Example 24, 4-[[1-[15-[4-[2-[4-[3-[3-amino-6-(2-hydroxyphenyl)pyridazin-4-yl]oxy-1-piperidyl]phenoxy]ethyl]piperazin-1-yl]-15-oxo-pentadecyl]triazol-4-yl]methylamino]-2-(2,6-dioxo-3-piperidyl)isoindoline-1,3-dione]
  DC50: 256 nM
  Emax: 56%

## Nc1nnc(-c2ccccc2O)cc1OC1CCCN(c2ccc(OCCN3CCN(C(=O)CCCCCCCCCCCCC(=O)N4CCN(c5ccc(NC6CCC(=O)NC6=O)cc5)CC4)CC3)cc2)C1 (stereo not drawn) [Example 25, 3-[4-[4-[14-[4-[2-[4-[3-[3-amino-6-(2-hydroxyphenyl)pyridazin-4-yl]oxy-1-piperidyl]phenoxy]ethyl]piperazin-1-yl]-14-oxo-tetradecanoyl]piperazin-1-yl]anilino]piperidine-2,6-dione]
  DC50: 614 nM
  Emax: 59%

## Nc1nnc(-c2ccccc2O)cc1OC1CCCN(c2ccc(N3CCN(C(=O)CCCCCCCCN4CCN(c5ccc6c(c5)C(=O)N(C5CCC(=O)NC5=O)C6=O)CC4)CC3)cc2)C1 (stereo not drawn) [Example 26, 5-[4-[9-[4-[4-[3-[3-amino-6-(2-hydroxyphenyl)pyridazin-4-yl]oxy-1-piperidyl]phenyl]piperazin-1-yl]-9-oxo-nonyl]piperazin-1-yl]-2-(2,6-dioxo-3-piperidyl)isoindoline-1,3-dione]
  DC50: 164 nM
  Emax: 63%
